Results taken from paper PMC12621191, “Increasing the Chemical Space of L-SIGN Specific Glycomimetics” (Journal of Medicinal Chemistry, 2025).

Key:
L-SIGN = molecular target: T1, L-SIGN (Homo sapiens, UniProt Q9H2X3); test: SPR binding inhibition (competition) assay on immobilized SARS-CoV-2 Spike surface, L-SIGN; settings: for Selectivity = (IC50 [DC-SIGN]/IC50 [L-SIGN]): L-SIGN vs DC-SIGN, SPR inhibition on Spike surface; for IC50 / L-SIGN IC50: SPR, Spike functionalized chip, L-SIGN 20 μM coinjected with ligand, pH 8, duplicates
T1 construct: L-SIGN 3G-ECD (amino acids 78 to 399); made in house
T1 sequence (Q9H2X3 78-399): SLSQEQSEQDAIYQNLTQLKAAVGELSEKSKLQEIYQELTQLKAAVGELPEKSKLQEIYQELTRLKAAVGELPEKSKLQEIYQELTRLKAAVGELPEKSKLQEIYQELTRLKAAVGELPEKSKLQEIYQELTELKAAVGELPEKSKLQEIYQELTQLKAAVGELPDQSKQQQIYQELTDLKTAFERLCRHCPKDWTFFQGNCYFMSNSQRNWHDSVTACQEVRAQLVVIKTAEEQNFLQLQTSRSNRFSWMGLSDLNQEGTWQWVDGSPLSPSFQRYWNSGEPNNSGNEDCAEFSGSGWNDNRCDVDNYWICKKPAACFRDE

DC-SIGN = molecular target: T2, DC-SIGN (Homo sapiens, UniProt Q9NNX6); test: SPR binding inhibition (competition) assay on immobilized SARS-CoV-2 Spike surface, DC-SIGN; settings: Spike functionalized chip, DC-SIGN 20 μM coinjected with ligand, pH 8, duplicates
T2 construct: DC-SIGN 3G-ECD (amino acids 66 to 404); made in house
T2 sequence (Q9NNX6 66-404): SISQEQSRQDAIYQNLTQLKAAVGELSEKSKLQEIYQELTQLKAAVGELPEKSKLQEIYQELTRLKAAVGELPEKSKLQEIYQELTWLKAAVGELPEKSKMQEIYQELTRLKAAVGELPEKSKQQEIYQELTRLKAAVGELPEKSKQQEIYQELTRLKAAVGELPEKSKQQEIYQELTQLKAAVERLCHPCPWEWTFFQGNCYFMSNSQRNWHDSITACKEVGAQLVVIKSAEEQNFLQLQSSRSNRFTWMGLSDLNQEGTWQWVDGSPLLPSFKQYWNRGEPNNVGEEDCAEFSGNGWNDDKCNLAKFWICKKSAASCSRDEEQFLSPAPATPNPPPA

Row | Structure (SMILES) | Selectivity = (IC50 [DC-SIGN]/IC50 [L-SIGN]) (L-SIGN) | IC50 (L-SIGN) [µM] | IC50 (DC-SIGN) [µM] | L-SIGN IC50 (L-SIGN) | Selectivity = (IC50 [DC-SIGN]/IC50 [L-SIGN]) (L-SIGN; listed as 51 (Man79))
1 | N=C(N)NCc1cn([C@@H]2[C@@H](OCCCl)O[C@H](CO)[C@@H](O)[C@@H]2O)nn1 [Man84, reference compound] | 61 | 19 ± 0.02 | 1160 ± 25 |  | 
2 | OC[C@H]1O[C@H](OCCCl)[C@@H](n2cc(CNc3ncccn3)nn2)[C@@H](O)[C@@H]1O [compound 2] |  | 602 ± 0.5 | 798 ± 16 | Low affinity | 
3 | COc1nc(NCc2cn([C@@H]3[C@@H](OCCCl)O[C@H](CO)[C@@H](O)[C@@H]3O)nn2)nc(OC)n1 [compound 3, 2-Chloroethyl 2-Deoxy-2-(4-(((4,6-dimethoxy-1,3,5-triazin-2-yl)amino)methyl)-1,2,3-triazol-1-yl)-α-D-mannopyranoside] |  | 453 ± 0.4 | 555 ± 14 | Low affinity | 
4 | OC[C@H]1O[C@H](OCCCl)[C@@H](n2cc(CNC3=NCCN3)nn2)[C@@H](O)[C@@H]1O [compound 4] | 76 | 15 ± 0.01 | 1130 ± 26 |  | 
5 | OC[C@H]1O[C@H](OCCCl)[C@@H](n2cc(CNC3=NCCCN3)nn2)[C@@H](O)[C@@H]1O [compound 5, 2-Chloroethyl 2-Deoxy-2-(4-(((1,4,5,6-tetrahydropyrimidin-2-yl)amino)methyl)-1,2,3-triazol-1-yl)-α-D-mannopyranoside] | 94 | 12 ± 0.01 | 1130 ± 55 |  | 
6 | O=c1ccnc(NCc2cn([C@@H]3[C@@H](OCCCl)O[C@H](CO)[C@@H](O)[C@@H]3O)nn2)[nH]1 [compound 6, 2-Chloroethyl 2-Deoxy-2-(4-(((pyrimidin-4(3H)-onyl)amino)methyl)-1,2,3-triazol-1-yl)-α-D-manno Pyranoside] | 25 | 30 ± 0.2 | 750 ± 29 |  | 
7 | O=c1nccc(NCc2cn([C@@H]3[C@@H](OCCCl)O[C@H](CO)[C@@H](O)[C@@H]3O)nn2)[nH]1 [compound 7, 2-Chloroethyl 2-Deoxy-2-(4-(((pyrimidin-2(1H)-onyl)amino)methyl)-1,2,3-triazol-1-yl)-α-D-manno Pyranoside] | 5 | 130 ± 1 | 692 ± 8 |  | 
8 | OC[C@H]1O[C@H](OCCCl)[C@@H](n2cc(CNc3ccccn3)nn2)[C@@H](O)[C@@H]1O [compound 8, 2-Chloroethyl 2-Deoxy-2-((4-((pyridin-2-ylamino)methyl))-1,2,3-triazol-1-yl)-α-D-mannopyranoside] | 8 | 101 ± 0.2 | 822 ± 16 |  | 
9 | OC[C@H]1O[C@H](OCCCl)[C@@H](n2cc(CNc3ncc[nH]3)nn2)[C@@H](O)[C@@H]1O [compound 9, 2-Chloroethyl 2-Deoxy-2-(4-(((1H-imidazol-2-yl)amino)methyl)-1,2,3-triazol-1-yl)-α-D-mannopyranoside] | 50 | 18 ± 0.1 | 895 ± 8 |  | 
10 | OC[C@H]1O[C@H](OCCCl)[C@@H](n2cc(CNc3nc4ccccc4[nH]3)nn2)[C@@H](O)[C@@H]1O [compound 10, 2-Chloroethyl 2-Deoxy-2-(4-(((1H-benzo[d]imidazol-2-yl)amino)methyl)-1,2,3-triazol-1-yl)-α-D-mannopyranoside] | 16 | 48 ± 0.4 | 779 ± 24 |  | 
11 | COc1ccc2[nH]c(NCc3cn([C@@H]4[C@@H](OCCCl)O[C@H](CO)[C@@H](O)[C@@H]4O)nn3)nc2c1 [compound 11, 2-Chloroethyl 2-Deoxy-2-(4-(((5-methoxy-1H-benzo[d]imidazol-2-yl)amino)methyl)-1,2,3-triazol-1-yl)-α-D-mannopyranoside] | 12 | 51.6 ± 0.7 | 602 ± 12 |  | 
12 | NCc1cn([C@@H]2[C@@H](OCCCl)O[C@H](CO)[C@@H](O)[C@@H]2O)nn1 [compound 51, reference compound] |  | ~300 | ~300 |  | totally unselective
